The values below are quoted from earlier work in patent publication US20220259114A1, “Microbe-Based Compositions for Restoring Soil Health and Controlling Pests” (Locus Agriculture IP Company, LLC, priority 2019, published 2022).

*1 amine or outer side, *2 acyl side, *3 side chain or, on linkers, in order; H or OH if unused. Where a SMILES comes first, the peptide text is derived from it. Bridges are numbered along the chain shown (N, C = ends). [ ]: non-standard residue; d: D form. X1 = CC(C)CCCCCCCCC[C@H](CC(=O)[*:1])O[*:2]

For data set [1] the following is noted: reduced from 72 mN/m; concentration as low as 0.005%.
Data set [2] concerns plant pathogens including bacteria, fungi, viruses and nematodes. The settings on record: in most cases does not exceed.
The conditions of data set [3]: stated 'in one embodiment'; species and route not given.

Take `CC(C)CCCCCCCCC[C@@H]1CC(=O)N[C@@H](CCC(=O)O)C(=O)N[C@@H](CC(C)C)C(=O)N[C@H](CC(C)C)C(=O)N[C@@H](C(C)C)C(=O)N[C@@H](CC(=O)O)C(=O)N[C@H](CC(C)C)C(=O)N[C@@H](CC(C)C)C(=O)O1` [Surfactin, surfactin] (EL[dL]VD[dL]L; linker N-C via X1): in data set [1], the “surface tension of water after reduction” value is 27 mN/m.
In the case of sophorolipid [SLP], the “effective SLP concentration for biopesticide activity, in most cases” value in data set [2] is recorded as at most 3 mg/L. Further, in data set [3], the toxic dose is given as > 375 mg/kg of body weight.
